Data reported in US12509451B2, “Heteroaryl amide inhibitors of CD38” (NAPA THERAPEUTICS LTD., priority 2020, dated 2025).

Key:
[1] = target: T1, recombinant human CD38 Protein (Homo sapiens, UniProt P28907); experiment: Fluorescence-based NAD+ hydrolase activity assay with human recombinant CD38 protein (Assay 3); assay type: biochemical; settings: read-out: Assay 3 Arithmetic mean IC50
T1 construct: purchased R&D System
T1 sequence (P28907 1-300): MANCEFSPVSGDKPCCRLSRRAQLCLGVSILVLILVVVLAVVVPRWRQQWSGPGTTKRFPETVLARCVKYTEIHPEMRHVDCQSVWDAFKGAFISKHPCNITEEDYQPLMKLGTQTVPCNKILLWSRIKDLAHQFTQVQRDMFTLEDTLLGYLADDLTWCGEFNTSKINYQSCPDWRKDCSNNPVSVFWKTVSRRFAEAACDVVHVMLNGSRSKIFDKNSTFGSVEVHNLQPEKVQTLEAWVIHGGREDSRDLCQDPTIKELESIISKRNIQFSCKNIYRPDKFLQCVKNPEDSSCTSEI
Procedure: This protocol was modified from the following references (Muller et al. (1983); (Schultz et al. (2018); (Matalonga et al. (2017); and de Oliveira et al. (2018), supra.
NAD+ hydrolase activity of the human recombinant CD38 protein treated with test compounds was measured using a fluorescence-based assay. Briefly, recombinant human CD38 Protein (R&D System) was resuspended in 44 μl/well of Sucrose-Tris Buffer (Sucrose 0.25 M, Tris pH 7.4 40 mM) and plated in a 96-well black plate (CORNING) at a density of 10 ng/well.
Each test compound was received in a powder state and dissolved in DMSO as a 25 mM stock solution. Each test compound was serially diluted in order to generate a dose-response curve. The dilution series of each test compound in DMSO was prepared at 50× the concentrations to be assayed. Each test compound was diluted to generate a 5-fold dilution series of 8 concentrations from 20 μM to 0.256 nM in order to assay 8 final concentrations ranging from ranging from 400 nM to 25.6 pM. One μl of the 50× concentration compound series was added to each well of the plate containing 10 ng protein in Sucrose-Tris buffer.
The reaction was started adding nicotinamide 1,N^6-etheno-adenine dinucleotide (Sigma Aldrich) to reach a final concentration of 80 µM. The samples were excited at 321-15 nm and the emission of fluorescence was measured at 410-20 nm at 37° C. every minute for 1 hr in a Clariostar® microplate reader (BMG LABTECH). NAD+ hydrolase activity was calculated as the slope of the linear portion of the fluorescence-time curve using the MARS data analysis software (BMG LABTECH). The data were uploaded in the Collaborative Drug Design (CDD) Software and for each compound the IC50 was calculated by the software. […] For each plate, the z-factor was also calculated as a plate quality using the CDD software.

[2] = target: T2, recombinant mouse CD38 Protein (Mus musculus, UniProt P56528); experiment: Fluorescence-based NAD+ hydrolase activity assay with mouse recombinant CD38 protein (Assay 5); assay type: biochemical; settings: read-out: Assay 5 Arithmetic mean IC50
T2 construct: purchased R&D System
T2 sequence (P56528 1-304): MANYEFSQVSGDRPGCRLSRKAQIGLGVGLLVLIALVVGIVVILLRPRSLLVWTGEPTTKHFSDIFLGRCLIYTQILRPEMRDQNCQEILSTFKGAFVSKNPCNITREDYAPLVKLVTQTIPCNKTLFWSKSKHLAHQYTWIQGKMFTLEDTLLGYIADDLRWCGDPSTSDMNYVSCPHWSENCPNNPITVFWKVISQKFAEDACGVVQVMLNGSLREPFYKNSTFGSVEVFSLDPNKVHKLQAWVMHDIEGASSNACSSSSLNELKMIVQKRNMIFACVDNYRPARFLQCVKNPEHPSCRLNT
Outline: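 Recombinant mouse CD38 (2.5 ng/well) in 0.25 M sucrose, 40 mM Tris pH 7.4, with compound at 8 final concentrations from 400 nM to 25.6 pM; reaction started with 80 µM etheno-NAD+. Fluorescence (ex 321, em 410 nm) read each minute for 1 h at 37 °C; activity as linear slope, IC50 from 3 independent experiments.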

Compound | IC50 [1] [nM] | IC50 [2] [nM]
Cc1cc(C(=O)Nc2cccnc2)nc(-n2ccnc2)n1 [Compound 49, 2-(1H-imidazol-1-yl)-6-methyl-N-(pyridin-3-yl)pyrimidine-4-carboxamide] | < 1 | < 1
Cc1cc(C(=O)Nc2ccncc2)nc(-c2nccn2C)c1 [Compound 45] | 1 to 50 | < 1
O=C(Nc1cccnc1)c1nc(-n2ccnc2)ccc1F [Compound 62] | 1 to 50 | 1 to 50
Cc1cc(C(=O)Nc2ccncc2)nc(-n2ccnc2)n1 [Compound 50] | < 1 | < 1
COc1cc(C(=O)Nc2cccnc2)nc(-n2ccnc2)c1 [Compound 36] | 1 to 50 | 1 to 50
O=C(Nc1ccnc(F)c1)c1cccc(-n2ccnc2)n1 [Compound 8] | 1 to 50 | 1 to 50

Now from value to molecule:

IC50 [1] [nM] | IC50 [2] [nM] | Compound
1 to 50 | 1 to 50 | Cn1ccnc1-c1cccc(C(=O)Nc2cccnc2)n1 [Compound 48]
< 1 | < 1 | COCCOc1cc(C(=O)Nc2ccnc(C(F)(F)F)c2)nc(-n2ccnc2)n1 [Compound 39, 2-(1H-imidazol-1-yl)-6-(2-methoxyethoxy)-N-(2-(trifluoromethyl)pyridin-4-yl)pyrimidine-4-carboxamide]
1 to 50 | 1 to 50 | COc1cc(NC(=O)c2cccc(-n3ccnc3)n2)ccn1 [Compound 12]
1 to 50 | < 1 | COCCOc1cc(C(=O)Nc2ccnc(C(F)(F)F)c2)nc(-n2ccnc2)c1 [Compound 31, 6-(1H-imidazol-1-yl)-4-(2-methoxyethoxy)-N-(2-(trifluoromethyl)pyridin-4-yl)picolinamide]
